Reference: US11471446B2, “Compounds for treatment of hypoproliferative disorders” (LU LICENSE AB, priority 2015, dated 2022)
Entries after “also recorded” stand apart in the source; their conditions may differ. Where a name gives a salt, the structure may show the parent alone.

How the values were obtained:
[1] = tested on: DBA patient CD34+ cells; experiment: Proliferation of erythroid DBA patient CD34+ cells in vitro; assay type: cell-based, human; settings: 200 nM; day 14 of culture
Method: 5000 peripheral blood CD34+ cells from healthy donors or DBA patients were plated in serum free medium containing human stem cell factor and Epo to support expansion of erythroid progenitors and precursor cells. […] All three CDK8-inhibitors promote proliferation of DBA patient cells.
(§1) To confirm that CDK8/CDK19 inhibitors rescue erythropoiesis also in human DBA patient cells, CD34+ cells were isolated from healthy donors and DBA patients. CD34+ cells were cultured in conditions supporting expansion of erythroid progenitors and precursors. Three CDK8/CDK19 inhibitors and vehicle control were added to the cultures.

[2] = tested on: RPS19-deficient murine erythroid progenitor cells; experiment: Phenotypic assay for rescued cell proliferation of murine RPS19-deficient erythroid progenitor cells; assay type: cell-based, mouse; settings: for Emax / EC50: Mus musculus, Erythroid progenitor cell; for Emax: maximal proliferation rescue, read-out: ECMAX (% rescue); for EC50: proliferation rescue of RPS19-deficient erythroid progenitor cells; for rescue of proliferation (in words): RPS19-deficient murine erythroid progenitor cells
Description: Correction of reduced proliferative capacity of RPS19-deficient erythroid progenitors was used as readout in a phenotypic screen for novel drug candidates.

[3] = tested on: DBA patient CD34+ cells; experiment: Erythroid maturation of DBA patient cells in vitro (CD71/CD235a flow cytometry); assay type: cell-based, human; settings: 200 nM; day 8 of culture; compared to DMSO
Method: Cells were cultured in the same conditions as in FIG. 9 and analysed by flow cytometry at day 8 of culture. CD71 is a positive marker for early erythroid progenitors while CD71 and CD235a positive cells are mature erythroid precursors.
as §1

[4] = target: T1, CDK19 (Homo sapiens (Human), UniProt Q9BWU1); experiment: 18 selected kinases panel, DiscoveRx LeadHunter Discovery Services; assay type: binding; settings: tested on 18 selected kinases
T1 sequence (Q9BWU1 whole entry): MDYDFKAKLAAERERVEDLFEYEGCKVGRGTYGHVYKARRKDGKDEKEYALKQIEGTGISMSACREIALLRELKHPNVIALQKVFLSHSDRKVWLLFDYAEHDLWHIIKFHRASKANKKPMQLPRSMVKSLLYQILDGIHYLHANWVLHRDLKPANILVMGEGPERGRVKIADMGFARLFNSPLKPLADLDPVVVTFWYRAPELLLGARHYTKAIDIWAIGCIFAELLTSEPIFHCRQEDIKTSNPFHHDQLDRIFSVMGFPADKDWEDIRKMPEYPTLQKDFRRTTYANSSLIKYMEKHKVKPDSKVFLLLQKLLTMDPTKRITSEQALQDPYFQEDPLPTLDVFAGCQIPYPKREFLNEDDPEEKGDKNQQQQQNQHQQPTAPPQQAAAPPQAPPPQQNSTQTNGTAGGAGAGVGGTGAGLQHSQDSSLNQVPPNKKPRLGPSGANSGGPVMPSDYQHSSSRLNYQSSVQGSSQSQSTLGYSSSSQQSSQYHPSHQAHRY
Method: DBA-4 was tested on 18 selected kinases by DiscoveRx LeadHunter™ Discovery Services.

[5] = tested on: RPS19-deficient erythroid progenitor cells; experiment: 7-AAD FACS, cell survival of RPS19-deficient erythroid progenitors; assay type: cell-based, mouse
Description: (§2) In addition, the selective CDK8/CDK19 inhibitors DBA-7 and DBA-8 both rescued RPS19-deficient erythroid progenitor cells from apoptosis (FIG. 7) and loss of kit+ progenitor cell maintenance in culture (FIG. 8).

[6] = tested on: RPS19-deficient erythroid progenitor cells; experiment: c-kit FACS, maintenance of c-kit+ progenitor cells in culture of RPS19-deficient erythroid progenitors; assay type: cell-based, mouse
Description: FIG. 8: The selective CDK8/CDK19 inhibitors DBA-7 and DBA-8 rescue the loss of c-kit+ progenitor cell observed in in vitro culture of RPS19-deficient erythroid progenitors.
as §2

[7] = known from Saito et al.; cited from earlier work
[8] = target: CDK8 (Homo sapiens (Human), UniProt P49336); experiment: KinomeScan (DiscoveRx) on 468 kinases; assay type: binding; settings: 0.5 μM
CDK8, sequence (P49336 whole entry): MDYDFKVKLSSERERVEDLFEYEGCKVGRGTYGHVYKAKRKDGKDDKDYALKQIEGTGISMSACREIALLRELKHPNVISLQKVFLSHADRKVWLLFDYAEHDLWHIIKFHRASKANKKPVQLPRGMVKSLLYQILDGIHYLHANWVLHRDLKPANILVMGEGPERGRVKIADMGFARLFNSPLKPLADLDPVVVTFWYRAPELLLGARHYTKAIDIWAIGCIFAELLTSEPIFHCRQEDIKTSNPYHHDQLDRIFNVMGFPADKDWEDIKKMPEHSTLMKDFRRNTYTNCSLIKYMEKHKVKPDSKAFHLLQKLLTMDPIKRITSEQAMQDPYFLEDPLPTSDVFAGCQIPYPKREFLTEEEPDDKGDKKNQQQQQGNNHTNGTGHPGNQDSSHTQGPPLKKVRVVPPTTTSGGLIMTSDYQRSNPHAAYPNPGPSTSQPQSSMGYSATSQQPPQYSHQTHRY
Description: (§3) Arrows point at CDK8 and CDK19.
(§4) In particular, a compound may be considered to be a CDK8 and/or CDK19 inhibitor if it can inhibit CDK8 and/or CDK19 at a concentration as defined herein above using the KinomeScan assay.

[9] = target: T1, CDK19; experiment: KinomeScan (DiscoveRx) on 468 kinases; assay type: binding; settings: 0.5 μM
Description: as §3, §4

[10] = tested on: RPS19-deficient mice; experiment: Reticulocyte counts in RPS19-deficient mouse model for DBA; assay type: in vivo; settings: oral 10 mg/kg every 12 hours, 5 doses; peripheral blood 48 hours after last treatment
Method: Treatment was stopped after 5 doses. 48 hours after last treatment peripheral blood was analysed for reticulocyte counts, which reflects the ongoing production of erythrocytes.
Treatment is stopped after 5 doses. 48 hours after last treatment peripheral blood is analysed for reticulocyte counts, which reflects the ongoing production of erythrocytes. Reticulocyte counts is rescued in RPS19-deficient mice treated with the selective CDK8/CDK19 inhibitors tested. In addition to rescue of reticulocyte and haemoglobin levels, other effects of the tested CDK8/CDK19 inhibitors are determined, in particular their ability to rescue bone marrow hypocellularity, to promote hemapopoetic stem and progenitor development, as well as cell cycle arrest and apoptosis.

In the case of Cc1c(Br)c(Br)c2c3c1nc(N1CCNCC1)n3CCC2 [DBA-10, 7,8-dibromo-9-methyl-2-(piperazin-1-yl)-5,6-dihydro-4H-imidazo[4,5,1-ij]quinoline hydrochloride, reference compound], the “proliferation of DBA patient cells (cell counts)” value (“proliferation … (cell counts)” below) [1] is reported as “rescue proliferation”, the Emax [2] is reported as 60% and the EC50 [2] is reported as 20 nM. The “erythroid maturation of DBA patient cells (CD71, CD235a)” value (shortened to “erythroid maturation”) [3] was “increase erythroid maturation”.

With COc1ccc(-c2cc(C3CC3)nc3sc(C(N)=O)c(N)c23)cc1 [DBA-2] the Emax [2] was 45%, the EC50 [2] was 15000 nM and the “rescue of proliferation (in words)” value [2] was “potent”.

In the case of COCc1cc(C)nc2sc(C(N)=O)c(N)c12 [DBA-4], the Emax [2] is reported as 28%, the EC50 [2] is reported as 2800 nM and the “rescue of proliferation (in words)” value [2] is reported as “potent”. For the same molecule, the “inhibition of CDK19” value [4] was “inhibited”.

In the case of Cc1c(C(N)=O)sc2nc(C(F)(F)F)cc(N)c12 [DBA-5], the Emax [2] is reported as 21%, the EC50 [2] is reported as 1700 nM and the “rescue of proliferation (in words)” value [2] is reported as “potent”.

Cn1cc(-c2ccc(-c3cncc(Cl)c3N3CCC4(CCNC4=O)CC3)cc2)cn1 [DBA-11, 8-[3-chloro-5-[4-(1-methyl-1H-pyrazol-4-yl)phenyl]-4-pyridinyl]-2,8-diazaspiro[4.5]decan-1-one, reference compound] showed an Emax [2] of 50% and an EC50 [2] of 20 nM.

In the case of CN(C)C(=O)Cc1ccc(N2CCCN(c3ccnc4sc(C(N)=O)c(N)c34)CC2)cc1 [DBA-7], the “proliferation … (cell counts)” value [1] is reported as “rescue proliferation”, the Emax [2] is reported as 82% and the EC50 [2] is reported as 25 nM. The “rescue of proliferation (in words)” value [2] was “potent; also recorded: partial dose-dependent rescue of proliferation”, the “rescue from apoptosis (7-AAD)” value [5] was “rescued” and the “erythroid maturation” value [3] was “increase erythroid maturation”. For the same molecule, the “rescue of loss of kit+ progenitor cell maintenance in culture” value [6] was “rescued”, the bone anabolic effect [7] was “effect as bone anabolic agents” and the “inhibition of CDK8” value [8] was “very selectively inhibited”. The “inhibition of CDK19” value [9] was “very selectively inhibited”.

For CN1CCN(C(=O)c2ccc3cc(CCNc4ncnc5ccc(C#N)cc45)ccc3c2)CC1 [DBA-9], the “proliferation … (cell counts)” value [1] was “rescue proliferation”, the Emax [2] was 60% and the “erythroid maturation” value [3] was “increase erythroid maturation”. For the same molecule, the reticulocyte counts [10] was “rescued”.

With CCc1nc2sc(C(N)=O)c(N)c2c2c1CCCC2 [DBA-3] the Emax [2] was 38%, the EC50 [2] was 11000 nM and the “rescue of proliferation (in words)” value [2] was “potent”.

With N#Cc1ccc2ncnc(NCCc3ccccc3)c2c1 [DBA-8, reference compound] the Emax [2] was 80%, the EC50 [2] was 500 nM and the “rescue of proliferation (in words)” value [2] was “partial dose-dependent rescue of proliferation”. The “rescue from apoptosis (7-AAD)” value [5] was “rescued” and the “rescue of loss of kit+ progenitor cell maintenance in culture” value [6] was “rescued”.

In the case of CN(C)c1ccnc2sc(C(N)=O)c(N)c12 [DBA-1], the Emax [2] is reported as 25%, the EC50 [2] is reported as 1200 nM and the “rescue of proliferation (in words)” value [2] is reported as “partial dose-dependent rescue of proliferation; also recorded: potent”. The bone anabolic effect [7] was “effect as bone anabolic agents”.

In the case of NC(=O)c1sc2nccc(N3CCCN(c4ccccc4)CC3)c2c1N [DBA-6], the Emax [2] is listed as 30%, the “rescue of proliferation (in words)” value [2] is listed as “partial dose-dependent rescue of proliferation; also recorded: potent” and the bone anabolic effect [7] is listed as “effect as bone anabolic agents”.
